According to patent US20150197497A1, “SELECTIVE INHIBITORS OF HISTONE DEACETYLASE ISOFORM 6 AND METHODS THEREOF” (DANA-FARBER CANCER INSTITUTE, INC., priority 2011, published 2015):

Legend:
HDAC3 = target: T1, HDAC3 (Homo sapiens, UniProt O15379); experiment: In vitro HDAC enzyme inhibition assay, HDAC3; assay type: biochemical; details: for HDAC3/HDAC6 in vitro selectivity: ratio of IC50 for HDAC3 relative to that of HDAC6; for IC50: recombinant full-length HDAC3, substrate MAZ1600 9 μM
T1 construct: Recombinant, full-length HDAC protein (BPS Biosciences) was incubated with fluorophore conjugated substrate; purchased BPS Biosciences
T1 sequence (O15379 whole entry): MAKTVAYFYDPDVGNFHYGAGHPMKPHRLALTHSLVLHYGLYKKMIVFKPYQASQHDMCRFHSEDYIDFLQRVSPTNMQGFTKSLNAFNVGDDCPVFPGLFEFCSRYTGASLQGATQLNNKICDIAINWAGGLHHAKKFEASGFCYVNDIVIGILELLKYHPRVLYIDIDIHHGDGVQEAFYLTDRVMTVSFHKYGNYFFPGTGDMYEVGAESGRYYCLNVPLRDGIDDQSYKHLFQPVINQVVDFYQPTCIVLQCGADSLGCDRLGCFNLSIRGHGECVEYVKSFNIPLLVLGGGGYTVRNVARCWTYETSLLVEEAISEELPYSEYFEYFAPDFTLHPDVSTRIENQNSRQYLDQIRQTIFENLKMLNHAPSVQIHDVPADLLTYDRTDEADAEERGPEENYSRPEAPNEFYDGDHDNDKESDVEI
T1 sequence (Q9Y618 395-489 partner limits assumed): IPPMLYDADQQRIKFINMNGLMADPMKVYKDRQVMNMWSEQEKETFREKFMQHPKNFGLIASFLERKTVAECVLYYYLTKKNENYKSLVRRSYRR
Method: (§1) In vitro Histone Deacetylase enzyme assays were performed using Class I (isoforms: HDAC1, HDAC2, HDAC3 and HDAC8), class IIa (isoforms: HDAC4, HDAC5, HDAC7 and HDAC9) and class IIb (isoform HDAC6).
(§2) HDAC activities were determined in vitro with an optimized homogenous assay performed in a 384-well plate. Recombinant, full-length HDAC protein (BPS Biosciences) was incubated with fluorophore conjugated substrate, MAZ1600 and MAZ1675, at Km=[S]. […] Reactions were performed in assay buffer (50 mM HEPES, 100 mM KCl, 0.001% Tween-20, 0.05% BSA, 200 μM tris(2-carboxyethyl)phosphine (TCEP), pH 7.4) and followed for fluorogenic release of 7-amino-4-methylcoumarin from substrate upon deacetylase and trypsin enzymatic activity. Fluorescence measurements were obtained every five minutes using a multilabel plate reader and plate-stacker (Envision; Perkin-Elmer). Each plate was analyzed by plate repeat, and the first derivative within the linear range was imported into analytical software (Spotfire DecisionSite and GraphPad Prism). Replicate experimental data from incubations with inhibitor were normalized to controls.

HDAC8 = target: T2, HDAC8 (Homo sapiens, UniProt Q9BY41); experiment: In vitro HDAC enzyme inhibition assay, HDAC8; assay type: biochemical; details: for HDAC8/HDAC6 in vitro selectivity: ratio of IC50 for HDAC8 relative to that of HDAC6; for IC50: recombinant full-length HDAC8, substrate MAZ1675 282 μM; for selectivity toward HDAC6 compared to HDAC8 (in words): tested in vitro
T2 construct: Recombinant, full-length HDAC protein (BPS Biosciences) was incubated with fluorophore conjugated substrate; purchased BPS Biosciences
T2 sequence (Q9BY41 1-377): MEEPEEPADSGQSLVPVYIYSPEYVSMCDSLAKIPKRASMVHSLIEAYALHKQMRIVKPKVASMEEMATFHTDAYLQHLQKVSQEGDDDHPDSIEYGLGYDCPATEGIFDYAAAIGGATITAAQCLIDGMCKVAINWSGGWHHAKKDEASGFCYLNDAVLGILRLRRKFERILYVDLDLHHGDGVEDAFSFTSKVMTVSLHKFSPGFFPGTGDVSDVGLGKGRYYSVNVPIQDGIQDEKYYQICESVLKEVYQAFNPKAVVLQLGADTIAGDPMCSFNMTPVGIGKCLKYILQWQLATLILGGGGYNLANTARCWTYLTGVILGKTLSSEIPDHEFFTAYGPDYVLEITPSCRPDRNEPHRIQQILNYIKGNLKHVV
Method: as §1, §2

acetylated tubulin = experiment: High-content image analysis of induction of acetylated tubulin in A549 cells; details: for EC50: Homo sapiens, A549, 8 h, read-out: EC50 for half-maximal induction of acetylated tubulin (AcTubulin); for AcHistone/AcTubulin in cell selectivity toward HDAC6: ratio of EC50 acetylated histone to EC50 acetylated tubulin, A549 cells
HDAC6 = target: T3, HDAC6 (Homo sapiens, UniProt Q9UBN7); experiment: In vitro HDAC enzyme inhibition assay, HDAC6; assay type: biochemical; details: recombinant full-length HDAC6, substrate MAZ1600 9 μM
T3 construct: Recombinant, full-length HDAC protein (BPS Biosciences) was incubated with fluorophore conjugated substrate; purchased BPS Biosciences
T3 sequence (Q9UBN7 1-1215): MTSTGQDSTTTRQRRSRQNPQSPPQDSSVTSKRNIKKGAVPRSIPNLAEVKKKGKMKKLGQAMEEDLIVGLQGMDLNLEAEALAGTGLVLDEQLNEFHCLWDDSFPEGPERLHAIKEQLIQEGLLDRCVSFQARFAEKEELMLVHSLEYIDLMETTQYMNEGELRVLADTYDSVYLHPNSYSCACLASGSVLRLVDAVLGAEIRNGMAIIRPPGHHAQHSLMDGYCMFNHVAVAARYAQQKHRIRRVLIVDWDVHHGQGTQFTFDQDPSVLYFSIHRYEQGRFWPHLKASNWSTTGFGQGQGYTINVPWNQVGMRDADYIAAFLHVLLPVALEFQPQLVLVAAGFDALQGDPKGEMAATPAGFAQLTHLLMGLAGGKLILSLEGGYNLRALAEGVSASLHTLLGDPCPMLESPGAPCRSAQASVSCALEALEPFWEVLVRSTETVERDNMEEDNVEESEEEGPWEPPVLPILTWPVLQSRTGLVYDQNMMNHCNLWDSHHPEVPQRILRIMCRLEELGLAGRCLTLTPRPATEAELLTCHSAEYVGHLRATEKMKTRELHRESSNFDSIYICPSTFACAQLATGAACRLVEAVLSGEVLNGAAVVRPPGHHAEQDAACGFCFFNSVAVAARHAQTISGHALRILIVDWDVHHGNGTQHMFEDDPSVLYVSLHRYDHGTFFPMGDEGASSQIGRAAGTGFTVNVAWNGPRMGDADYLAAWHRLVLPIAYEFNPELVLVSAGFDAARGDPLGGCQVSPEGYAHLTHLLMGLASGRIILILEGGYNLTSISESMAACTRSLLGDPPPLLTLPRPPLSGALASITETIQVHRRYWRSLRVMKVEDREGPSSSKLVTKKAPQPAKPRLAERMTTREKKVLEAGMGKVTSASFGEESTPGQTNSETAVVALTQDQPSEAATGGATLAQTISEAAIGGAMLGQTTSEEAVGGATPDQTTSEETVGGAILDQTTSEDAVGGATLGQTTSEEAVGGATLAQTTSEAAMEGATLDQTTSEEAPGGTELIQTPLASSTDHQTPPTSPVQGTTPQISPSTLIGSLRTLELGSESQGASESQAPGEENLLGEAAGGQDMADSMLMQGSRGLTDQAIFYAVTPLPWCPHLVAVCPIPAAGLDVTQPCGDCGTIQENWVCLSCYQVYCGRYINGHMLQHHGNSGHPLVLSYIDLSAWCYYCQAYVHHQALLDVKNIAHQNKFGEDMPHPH
Method: as §1, §2

acetylated histones = experiment: High-content image analysis of induction of acetylated histones in A549 cells; details: Homo sapiens, A549, 8 h, read-out: EC50 for half-maximal induction of acetylated histones (AcHistone)
HDAC5 = target: T4, HDAC5 (Homo sapiens, UniProt Q9UQL6); experiment: In vitro HDAC enzyme inhibition assay, HDAC5; assay type: biochemical; details: for HDAC5/HDAC6 in vitro selectivity: ratio of IC50 for HDAC5 relative to that of HDAC6; for IC50: recombinant full-length HDAC5, substrate MAZ1675 40 μM; for selectivity toward HDAC6 compared to HDAC5 (in words): tested in vitro
T4 construct: Recombinant, full-length HDAC protein (BPS Biosciences) was incubated with fluorophore conjugated substrate; purchased BPS Biosciences
T4 sequence (Q9UQL6 whole entry): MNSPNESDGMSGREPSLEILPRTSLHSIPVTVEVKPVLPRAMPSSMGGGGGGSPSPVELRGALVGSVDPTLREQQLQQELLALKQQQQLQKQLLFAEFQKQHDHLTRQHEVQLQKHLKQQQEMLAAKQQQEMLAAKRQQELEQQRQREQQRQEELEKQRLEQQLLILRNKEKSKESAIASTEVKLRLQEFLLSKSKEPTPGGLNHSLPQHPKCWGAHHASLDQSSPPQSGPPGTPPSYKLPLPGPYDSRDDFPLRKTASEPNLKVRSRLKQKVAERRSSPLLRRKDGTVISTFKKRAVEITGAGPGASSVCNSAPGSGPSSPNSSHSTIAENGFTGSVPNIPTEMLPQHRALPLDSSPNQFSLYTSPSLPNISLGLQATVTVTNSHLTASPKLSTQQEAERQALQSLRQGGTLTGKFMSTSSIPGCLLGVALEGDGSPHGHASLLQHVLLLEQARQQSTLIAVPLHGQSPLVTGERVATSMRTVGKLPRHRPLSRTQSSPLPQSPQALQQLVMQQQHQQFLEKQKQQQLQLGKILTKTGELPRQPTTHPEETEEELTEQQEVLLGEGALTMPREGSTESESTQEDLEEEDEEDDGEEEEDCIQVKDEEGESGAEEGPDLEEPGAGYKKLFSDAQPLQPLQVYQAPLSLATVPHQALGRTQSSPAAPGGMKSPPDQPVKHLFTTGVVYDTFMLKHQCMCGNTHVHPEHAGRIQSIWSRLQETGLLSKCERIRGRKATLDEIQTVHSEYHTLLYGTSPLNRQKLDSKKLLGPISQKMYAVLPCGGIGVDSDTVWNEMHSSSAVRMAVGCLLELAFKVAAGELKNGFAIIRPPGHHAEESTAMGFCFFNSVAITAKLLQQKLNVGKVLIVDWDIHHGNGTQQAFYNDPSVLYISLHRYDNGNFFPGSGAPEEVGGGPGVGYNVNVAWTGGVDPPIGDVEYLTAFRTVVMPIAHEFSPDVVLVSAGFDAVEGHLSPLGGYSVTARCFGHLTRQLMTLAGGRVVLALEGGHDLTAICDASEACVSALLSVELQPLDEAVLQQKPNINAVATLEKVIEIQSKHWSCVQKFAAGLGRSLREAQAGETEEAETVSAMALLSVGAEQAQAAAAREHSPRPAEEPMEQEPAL
Method: as §1, §2

HDAC4 = target: T5, HDAC4 (Homo sapiens, UniProt P56524); experiment: In vitro HDAC enzyme inhibition assay, HDAC4; assay type: biochemical; details: for HDAC4/HDAC6 in vitro selectivity: ratio of IC50 for HDAC4 relative to that of HDAC6; for IC50: recombinant full-length HDAC4, substrate MAZ1675 10 μM; for selectivity toward HDAC6 compared to HDAC4 (in words): tested in vitro
T5 construct: Recombinant, full-length HDAC protein (BPS Biosciences) was incubated with fluorophore conjugated substrate; purchased BPS Biosciences
T5 sequence (P56524 whole entry): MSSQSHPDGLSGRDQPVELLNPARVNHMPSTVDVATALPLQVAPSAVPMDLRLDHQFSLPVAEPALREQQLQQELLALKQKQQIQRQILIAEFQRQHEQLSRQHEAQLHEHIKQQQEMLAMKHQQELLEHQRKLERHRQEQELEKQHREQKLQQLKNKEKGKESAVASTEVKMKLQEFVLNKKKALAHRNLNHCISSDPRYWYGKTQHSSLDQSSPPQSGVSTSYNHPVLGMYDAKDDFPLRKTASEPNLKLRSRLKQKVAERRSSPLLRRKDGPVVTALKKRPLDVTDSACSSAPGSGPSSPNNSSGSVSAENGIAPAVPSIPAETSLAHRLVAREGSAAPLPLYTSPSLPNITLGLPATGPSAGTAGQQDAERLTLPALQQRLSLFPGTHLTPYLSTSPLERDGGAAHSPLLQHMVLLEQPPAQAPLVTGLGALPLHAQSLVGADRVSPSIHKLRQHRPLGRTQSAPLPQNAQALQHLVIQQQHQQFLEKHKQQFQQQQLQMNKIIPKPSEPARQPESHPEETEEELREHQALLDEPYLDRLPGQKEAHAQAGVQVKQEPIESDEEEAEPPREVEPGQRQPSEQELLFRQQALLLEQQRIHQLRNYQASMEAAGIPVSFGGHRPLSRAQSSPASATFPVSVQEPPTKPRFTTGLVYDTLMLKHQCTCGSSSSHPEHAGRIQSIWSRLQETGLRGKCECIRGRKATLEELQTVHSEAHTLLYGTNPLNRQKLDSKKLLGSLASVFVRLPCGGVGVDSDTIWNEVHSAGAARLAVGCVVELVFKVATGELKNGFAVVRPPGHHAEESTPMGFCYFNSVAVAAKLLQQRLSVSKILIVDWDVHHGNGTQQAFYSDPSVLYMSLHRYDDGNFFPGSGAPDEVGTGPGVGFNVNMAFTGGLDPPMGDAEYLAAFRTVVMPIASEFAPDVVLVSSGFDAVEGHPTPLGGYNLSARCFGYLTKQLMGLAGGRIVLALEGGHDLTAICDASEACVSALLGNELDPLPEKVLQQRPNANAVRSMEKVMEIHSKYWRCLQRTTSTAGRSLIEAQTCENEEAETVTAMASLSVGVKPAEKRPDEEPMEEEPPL
Method: as §1, §2

HDAC9 = target: T6, HDAC9 (Homo sapiens, UniProt Q9UKV0); experiment: In vitro HDAC enzyme inhibition assay, HDAC9; assay type: biochemical; details: for HDAC9/HDAC6 in vitro selectivity: ratio of IC50 for HDAC9 relative to that of HDAC6; for IC50: recombinant full-length HDAC9, substrate MAZ1675 26 μM; for selectivity toward HDAC6 compared to HDAC9 (in words): tested in vitro
T6 construct: Recombinant, full-length HDAC protein (BPS Biosciences) was incubated with fluorophore conjugated substrate; purchased BPS Biosciences
T6 sequence (Q9UKV0 whole entry): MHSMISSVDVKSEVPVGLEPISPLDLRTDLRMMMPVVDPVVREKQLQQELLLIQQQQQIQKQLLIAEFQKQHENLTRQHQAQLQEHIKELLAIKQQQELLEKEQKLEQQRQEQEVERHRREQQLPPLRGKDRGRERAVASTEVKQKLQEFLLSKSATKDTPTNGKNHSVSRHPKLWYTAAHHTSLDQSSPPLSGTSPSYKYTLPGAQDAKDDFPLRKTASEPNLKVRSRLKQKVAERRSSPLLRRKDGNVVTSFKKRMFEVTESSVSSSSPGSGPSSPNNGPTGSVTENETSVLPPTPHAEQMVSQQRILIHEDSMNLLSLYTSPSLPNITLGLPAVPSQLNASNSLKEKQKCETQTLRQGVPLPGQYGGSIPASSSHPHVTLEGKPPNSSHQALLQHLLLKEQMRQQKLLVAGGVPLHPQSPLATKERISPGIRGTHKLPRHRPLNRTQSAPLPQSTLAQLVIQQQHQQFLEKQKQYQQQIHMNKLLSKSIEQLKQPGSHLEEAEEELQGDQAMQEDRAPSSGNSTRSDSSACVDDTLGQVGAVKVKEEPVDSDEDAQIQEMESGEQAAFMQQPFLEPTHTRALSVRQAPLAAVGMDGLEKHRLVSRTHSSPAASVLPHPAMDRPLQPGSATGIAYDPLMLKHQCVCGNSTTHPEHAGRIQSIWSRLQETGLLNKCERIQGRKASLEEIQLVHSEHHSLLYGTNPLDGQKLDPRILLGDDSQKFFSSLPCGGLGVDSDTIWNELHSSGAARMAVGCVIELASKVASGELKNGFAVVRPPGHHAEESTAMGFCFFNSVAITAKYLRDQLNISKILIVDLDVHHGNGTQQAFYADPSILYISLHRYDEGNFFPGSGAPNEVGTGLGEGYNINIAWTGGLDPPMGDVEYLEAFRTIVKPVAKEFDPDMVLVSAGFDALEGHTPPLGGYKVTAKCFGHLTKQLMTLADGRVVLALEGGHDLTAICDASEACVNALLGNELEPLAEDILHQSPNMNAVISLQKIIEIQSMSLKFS
Method: as §1, §2

HDAC1 = target: T7, HDAC1 (Homo sapiens, UniProt Q13547); experiment: In vitro HDAC enzyme inhibition assay, HDAC1; assay type: biochemical; details: for HDAC1/HDAC6 in vitro selectivity: ratio of IC50 for HDAC1 relative to that of HDAC6; for IC50: recombinant full-length HDAC1, substrate MAZ1600 21 μM
T7 construct: Recombinant, full-length HDAC protein (BPS Biosciences) was incubated with fluorophore conjugated substrate; purchased BPS Biosciences
T7 sequence (Q13547 whole entry): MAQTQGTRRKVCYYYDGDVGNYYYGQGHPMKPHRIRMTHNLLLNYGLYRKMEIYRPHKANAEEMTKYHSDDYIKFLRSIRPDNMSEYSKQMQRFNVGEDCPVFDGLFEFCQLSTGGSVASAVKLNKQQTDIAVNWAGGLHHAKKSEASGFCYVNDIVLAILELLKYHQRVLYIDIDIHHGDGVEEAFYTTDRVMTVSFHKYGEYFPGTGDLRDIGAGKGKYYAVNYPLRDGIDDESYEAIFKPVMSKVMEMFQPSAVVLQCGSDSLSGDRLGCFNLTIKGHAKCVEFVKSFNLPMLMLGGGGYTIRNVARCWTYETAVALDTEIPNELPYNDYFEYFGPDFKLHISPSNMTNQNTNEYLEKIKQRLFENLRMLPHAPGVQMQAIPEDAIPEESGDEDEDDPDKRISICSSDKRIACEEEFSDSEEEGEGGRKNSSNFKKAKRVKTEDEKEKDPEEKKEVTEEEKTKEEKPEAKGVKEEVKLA
Method: as §1, §2

| SMILES | HDAC3/HDAC6 in vitro selectivity (HDAC3) | IC50 (HDAC3) | HDAC8/HDAC6 in vitro selectivity (HDAC8) | IC50 (HDAC8) | selectivity toward HDAC6 compared to HDAC8 (in words) (HDAC8) | EC50 (acetylated tubulin) | AcHistone/AcTubulin in cell selectivity toward HDAC6 (acetylated tubulin) | IC50 (HDAC6) | EC50 (acetylated histones) | HDAC5/HDAC6 in vitro selectivity (HDAC5) | IC50 (HDAC5) | selectivity toward HDAC6 compared to HDAC5 (in words) (HDAC5) | HDAC4/HDAC6 in vitro selectivity (HDAC4) | IC50 (HDAC4) | selectivity toward HDAC6 compared to HDAC4 (in words) (HDAC4) | HDAC9/HDAC6 in vitro selectivity (HDAC9) | IC50 (HDAC9) | selectivity toward HDAC6 compared to HDAC9 (in words) (HDAC9) | HDAC1/HDAC6 in vitro selectivity (HDAC1) | IC50 (HDAC1) |
| --- | --- | --- | --- | --- | --- | --- | --- | --- | --- | --- | --- | --- | --- | --- | --- | --- | --- | --- | --- | --- |
| Cc1ccc2c(c1)[nH]c(=O)n2Cc1ccc(C(=O)NO)cc1 [B2, N-hydroxy-4-((5-methyl-2-oxo-2,3-dihydro-1H-benzo[d]imidazol-1-yl)methyl)benzamide] | 6310 | 18.1 nM | 120780 | 346 nM | exceptionally high selectivity (Inhibitors with in vitro selectivity values for HDAC6 of at least 30,000 are considered to have exceptionally high selectivity toward HDAC6) | 95.3 nM | 2.402 | 0.00286 nM | 229 nM | 229909 | 658 nM | exceptionally high selectivity (Inhibitors with in vitro selectivity values for HDAC6 of at least 30,000 are considered to have exceptionally high selectivity toward HDAC6) | 412836 | 1180 nM | exceptionally high selectivity (Inhibitors with in vitro selectivity values for HDAC6 of at least 30,000 are considered to have exceptionally high selectivity toward HDAC6) | 319552 | 915 nM | exceptionally high selectivity (Inhibitors with in vitro selectivity values for HDAC6 of at least 30,000 are considered to have exceptionally high selectivity toward HDAC6) | 4622 | 13.2 nM |
| O=C(NO)c1ccc(Cn2c(=O)[nH]c3ccccc32)cc1 [B1, N-hydroxy-4-((2-oxo-2,3-dihydro-1H-benzo[d]imidazol-1-yl)methyl)benzamide] | 14575 | 212 nM | 46328 | 673 nM | exceptionally high selectivity (Inhibitors with in vitro selectivity values for HDAC6 of at least 30,000 are considered to have exceptionally high selectivity toward HDAC6) | 89.4 nM | 2.941 | 0.0145 nM | 263 nM | 117927 | 1710 nM | exceptionally high selectivity (Inhibitors with in vitro selectivity values for HDAC6 of at least 30,000 are considered to have exceptionally high selectivity toward HDAC6) | 153386 | 2230 nM | exceptionally high selectivity (Inhibitors with in vitro selectivity values for HDAC6 of at least 30,000 are considered to have exceptionally high selectivity toward HDAC6) | 155186 | 2250 nM | exceptionally high selectivity (Inhibitors with in vitro selectivity values for HDAC6 of at least 30,000 are considered to have exceptionally high selectivity toward HDAC6) | 9665 | 140 nM |
| O=C(NO)c1ccc(Cn2cnc3cc(Cl)ccc32)cc1 [A10, 4-((5-chloro-1H-benzo[d]imidazol-1-yl)methyl)-N-hydroxybenzamide] | 3046 | 210 nM | 7524 | 519 nM |  | 188 nM | 4.787 | 0.069 nM | 900 nM | 9686 | 668 nM |  | 21516 | 1480 nM |  | 17278 | 1190 nM |  | 1399 | 96.5 nM |
| COc1ccc2c(c1)ncn2Cc1ccc(C(=O)NO)cc1 [A12, N-hydroxy-4-((5-methoxy-1H-benzo[d]imidazol-1-yl)methyl)benzamide] | 2293 | 497 nM | 6543 | 1420 nM |  | 221 nM | 0.4738 | 0.217 nM | 105 nM | 7819 | 1700 nM |  | 12423 | 2690 nM |  | 10933 | 2370 nM |  | 1378 | 299 nM |
| O=C(NO)c1ccc(Cn2cnc3cc(F)ccc32)cc1 [A9, 4-((5-fluoro-1H-benzo[d]imidazol-1-yl)methyl)-N-hydroxybenzamide] | 9140 | 606 nM | 12348 | 819 nM |  | 132 nM | 0.4765 | 0.0663 nM | 62.7 nM | 15350 | 1020 nM |  | 28751 | 1910 nM |  | 32978 | 2190 nM | exceptionally high selectivity (Inhibitors with in vitro selectivity values for HDAC6 of at least 30,000 are considered to have exceptionally high selectivity toward HDAC6) | 2812 | 186 nM |
